From paper PMC6819783, “Cohnella sp. A01 laccase: thermostable, detergent resistant, anti-environmental and industrial pollutants enzyme” (Heliyon, 2019)

Tested on: T1, Cohnella sp. A01 laccase
T1 construct: gene multicopper oxidase; recombinant in E. coli BL21, pET-26b(+) NcoI/XhoI, His-tagged, Ni-Sepharose purified
Test: oxidation followed at […] nm, Michaelis-Menten fit
Assay type: biochemical
Details: 0.3-2.5 mM DMP; phosphate buffer; assay pH 8 and 90 °C (optimum; not restated for the kinetics)

## COc1cccc(OC)c1O [2,6-dimethoxyphenol]
  Km: 686 µM
